Results on 11 compounds are retold here after ChEMBL document CHEMBL5465560, “Selectivity Literature for EUbOPEN Chemogenomic Library” (2024).

The target in test [1] is T1, Sphingosine kinase 2 (Homo sapiens) (UniProt Q9NRA0).
T1 sequence (whole entry): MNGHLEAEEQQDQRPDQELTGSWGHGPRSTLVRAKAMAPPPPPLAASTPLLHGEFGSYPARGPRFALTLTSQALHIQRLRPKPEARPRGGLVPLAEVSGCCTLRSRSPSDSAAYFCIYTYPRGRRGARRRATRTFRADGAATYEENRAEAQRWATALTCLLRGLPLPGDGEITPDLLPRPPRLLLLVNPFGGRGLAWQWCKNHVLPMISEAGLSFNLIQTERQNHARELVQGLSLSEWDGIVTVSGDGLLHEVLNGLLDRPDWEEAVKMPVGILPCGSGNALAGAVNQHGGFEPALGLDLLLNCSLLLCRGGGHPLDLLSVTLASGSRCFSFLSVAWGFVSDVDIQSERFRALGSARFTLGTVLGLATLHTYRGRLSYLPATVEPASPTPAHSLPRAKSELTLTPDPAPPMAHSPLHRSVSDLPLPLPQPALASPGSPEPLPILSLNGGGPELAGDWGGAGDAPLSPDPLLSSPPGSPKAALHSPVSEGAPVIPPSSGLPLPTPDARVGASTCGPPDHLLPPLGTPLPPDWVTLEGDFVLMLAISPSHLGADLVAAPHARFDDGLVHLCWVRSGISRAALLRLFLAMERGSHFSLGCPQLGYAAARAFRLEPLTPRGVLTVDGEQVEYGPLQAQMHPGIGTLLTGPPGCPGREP
Briefly: Selectivity interaction (Adapta Assay) EUB0001632a SPHK2. To be noted: at 10 µM.

Test [2] deals with Mitogen-activated protein kinase kinase kinase 21 (Homo sapiens) (UniProt Q5TCX8). Briefly: Selectivity interaction (Kinase panel (KiNativ target engagement assay in Jurkat cells)) EUB0001635a MAP3K21. In kind it is cell-based. The conditions noted are these: Selectivity number of off-targets 0.0, Selectivity number of targets 233.0, Source Knowledge https://www.sciencedirect.com/science/article/pii/S2451945619300674?via%3Dihub, at 1 µM.
Sequence of Mitogen-activated protein kinase kinase kinase 21 (Homo sapiens) (Q5TCX8 whole entry): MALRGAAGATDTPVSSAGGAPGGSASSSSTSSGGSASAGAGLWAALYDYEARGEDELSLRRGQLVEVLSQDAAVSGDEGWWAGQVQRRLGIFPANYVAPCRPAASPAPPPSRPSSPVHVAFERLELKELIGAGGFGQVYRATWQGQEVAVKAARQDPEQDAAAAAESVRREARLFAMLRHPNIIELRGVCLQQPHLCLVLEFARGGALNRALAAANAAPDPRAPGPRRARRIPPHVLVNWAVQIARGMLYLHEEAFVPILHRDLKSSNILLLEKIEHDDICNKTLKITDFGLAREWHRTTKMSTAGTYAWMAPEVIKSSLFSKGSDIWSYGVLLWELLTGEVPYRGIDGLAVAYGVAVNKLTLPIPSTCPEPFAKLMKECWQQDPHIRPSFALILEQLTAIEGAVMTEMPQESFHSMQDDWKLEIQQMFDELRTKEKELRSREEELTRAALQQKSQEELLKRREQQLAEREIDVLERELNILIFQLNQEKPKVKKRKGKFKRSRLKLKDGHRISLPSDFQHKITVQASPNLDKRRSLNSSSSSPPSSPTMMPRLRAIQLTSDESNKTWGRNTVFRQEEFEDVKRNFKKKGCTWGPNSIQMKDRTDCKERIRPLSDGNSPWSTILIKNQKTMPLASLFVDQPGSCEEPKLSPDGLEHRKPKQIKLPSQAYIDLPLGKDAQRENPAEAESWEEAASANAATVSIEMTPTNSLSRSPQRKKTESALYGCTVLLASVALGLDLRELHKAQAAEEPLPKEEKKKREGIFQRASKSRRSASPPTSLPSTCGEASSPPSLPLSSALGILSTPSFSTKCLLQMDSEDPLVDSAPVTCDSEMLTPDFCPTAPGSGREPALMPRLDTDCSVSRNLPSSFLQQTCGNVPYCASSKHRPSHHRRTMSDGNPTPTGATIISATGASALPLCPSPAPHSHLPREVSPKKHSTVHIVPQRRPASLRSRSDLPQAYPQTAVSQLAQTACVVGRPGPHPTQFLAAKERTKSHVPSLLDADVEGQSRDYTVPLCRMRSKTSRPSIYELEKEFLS

In test [3] the target is Serine/threonine-protein kinase PAK 3 (Homo sapiens) (UniProt O75914). Kind of test: Selectivity interaction (KinomeScan (DiscoverX)) EUB0000607a PAK3. The conditions noted are these: at 10 µM.
Sequence of Serine/threonine-protein kinase PAK 3 (Homo sapiens) (O75914 whole entry, looked up): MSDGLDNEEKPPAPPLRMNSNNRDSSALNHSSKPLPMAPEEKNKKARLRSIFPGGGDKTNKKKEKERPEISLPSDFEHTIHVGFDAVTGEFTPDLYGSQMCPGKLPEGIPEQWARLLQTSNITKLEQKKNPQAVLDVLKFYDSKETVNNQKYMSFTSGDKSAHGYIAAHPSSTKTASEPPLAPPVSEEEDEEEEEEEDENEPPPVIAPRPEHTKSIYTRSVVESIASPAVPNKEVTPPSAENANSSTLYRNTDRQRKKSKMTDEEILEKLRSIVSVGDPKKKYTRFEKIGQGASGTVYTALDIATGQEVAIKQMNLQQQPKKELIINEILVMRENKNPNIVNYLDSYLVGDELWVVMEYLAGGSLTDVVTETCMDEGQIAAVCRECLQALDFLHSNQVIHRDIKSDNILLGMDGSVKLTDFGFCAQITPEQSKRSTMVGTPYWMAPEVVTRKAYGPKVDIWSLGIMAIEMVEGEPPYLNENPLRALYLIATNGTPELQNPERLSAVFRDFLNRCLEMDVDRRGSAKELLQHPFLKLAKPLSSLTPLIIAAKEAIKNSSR
In test [4] the target is Cyclin-dependent kinase 13 (Homo sapiens, UniProt Q14004). The conditions noted are these: at 10 µM.
Sequence of Cyclin-dependent kinase 13 (Q14004 whole entry, looked up): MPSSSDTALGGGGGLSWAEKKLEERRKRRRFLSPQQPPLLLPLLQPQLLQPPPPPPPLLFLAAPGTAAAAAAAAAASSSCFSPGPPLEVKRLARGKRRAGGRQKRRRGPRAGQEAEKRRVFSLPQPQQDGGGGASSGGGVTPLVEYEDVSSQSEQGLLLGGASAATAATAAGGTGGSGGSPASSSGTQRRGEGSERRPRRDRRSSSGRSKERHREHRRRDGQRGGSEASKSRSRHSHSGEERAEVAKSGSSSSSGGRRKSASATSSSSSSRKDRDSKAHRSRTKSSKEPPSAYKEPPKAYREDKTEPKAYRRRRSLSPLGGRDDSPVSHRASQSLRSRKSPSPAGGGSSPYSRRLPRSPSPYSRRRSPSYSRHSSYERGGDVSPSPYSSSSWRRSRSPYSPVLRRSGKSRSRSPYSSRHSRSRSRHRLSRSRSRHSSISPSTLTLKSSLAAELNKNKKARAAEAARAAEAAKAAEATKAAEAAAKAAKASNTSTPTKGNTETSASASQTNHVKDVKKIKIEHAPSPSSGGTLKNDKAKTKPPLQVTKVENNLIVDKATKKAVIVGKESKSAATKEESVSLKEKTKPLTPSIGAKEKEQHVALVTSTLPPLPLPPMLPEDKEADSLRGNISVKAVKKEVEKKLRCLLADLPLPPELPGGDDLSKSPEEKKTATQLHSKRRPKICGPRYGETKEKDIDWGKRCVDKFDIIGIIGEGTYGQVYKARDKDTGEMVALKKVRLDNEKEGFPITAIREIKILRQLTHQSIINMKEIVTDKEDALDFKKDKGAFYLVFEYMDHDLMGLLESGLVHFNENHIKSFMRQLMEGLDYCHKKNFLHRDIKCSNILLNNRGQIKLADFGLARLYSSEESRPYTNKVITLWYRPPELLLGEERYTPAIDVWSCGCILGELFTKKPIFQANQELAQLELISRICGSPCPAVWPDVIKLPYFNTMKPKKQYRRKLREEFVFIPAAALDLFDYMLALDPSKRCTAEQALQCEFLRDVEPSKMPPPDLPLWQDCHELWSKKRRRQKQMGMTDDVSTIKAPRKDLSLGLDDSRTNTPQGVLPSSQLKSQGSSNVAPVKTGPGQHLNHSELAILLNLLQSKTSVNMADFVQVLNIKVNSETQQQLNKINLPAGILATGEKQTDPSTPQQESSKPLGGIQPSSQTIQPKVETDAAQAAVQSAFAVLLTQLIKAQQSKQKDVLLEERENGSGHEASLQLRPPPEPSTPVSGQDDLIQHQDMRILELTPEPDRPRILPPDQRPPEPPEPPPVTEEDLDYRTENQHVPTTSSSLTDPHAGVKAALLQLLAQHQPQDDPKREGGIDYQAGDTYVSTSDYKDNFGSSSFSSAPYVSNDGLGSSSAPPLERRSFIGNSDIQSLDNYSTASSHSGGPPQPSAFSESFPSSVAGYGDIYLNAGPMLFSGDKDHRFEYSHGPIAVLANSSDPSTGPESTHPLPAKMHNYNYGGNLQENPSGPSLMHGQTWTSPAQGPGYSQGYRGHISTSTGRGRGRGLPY
Test [5] addresses Maternal embryonic leucine zipper kinase (Homo sapiens) (UniProt Q14680). Briefly: Selectivity interaction (KinomeScan (DiscoverX)) EUB0001079a MELK. The conditions noted are these: at 1 µM.
The target of test [6] is T2, Serine/threonine-protein kinase STK11 (Homo sapiens) (UniProt Q15831).
T2 sequence (whole entry): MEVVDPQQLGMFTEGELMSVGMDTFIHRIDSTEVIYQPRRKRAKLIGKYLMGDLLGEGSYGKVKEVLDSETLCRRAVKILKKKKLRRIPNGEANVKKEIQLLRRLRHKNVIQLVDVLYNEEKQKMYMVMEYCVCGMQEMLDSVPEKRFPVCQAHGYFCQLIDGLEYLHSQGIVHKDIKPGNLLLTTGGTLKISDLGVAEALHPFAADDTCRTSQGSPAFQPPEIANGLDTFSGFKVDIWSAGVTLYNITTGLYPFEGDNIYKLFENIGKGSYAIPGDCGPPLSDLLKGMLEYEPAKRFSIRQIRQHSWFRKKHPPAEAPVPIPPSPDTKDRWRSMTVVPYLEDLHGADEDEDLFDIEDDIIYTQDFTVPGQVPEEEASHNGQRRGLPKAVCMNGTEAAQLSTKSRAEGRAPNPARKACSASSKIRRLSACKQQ
Kind of test: Selectivity interaction (KinomeScan (DiscoverX)) EUB0001619a STK11. The conditions noted are these: at 1 µM.

The target in test [7] is Mitogen-activated protein kinase 1 (Homo sapiens, UniProt P28482). Briefly: Selectivity interaction (Millipore kinase profiler) EUB0000124b MAPK1. To be noted: at 10 µM.
Sequence of Mitogen-activated protein kinase 1 (P28482 whole entry): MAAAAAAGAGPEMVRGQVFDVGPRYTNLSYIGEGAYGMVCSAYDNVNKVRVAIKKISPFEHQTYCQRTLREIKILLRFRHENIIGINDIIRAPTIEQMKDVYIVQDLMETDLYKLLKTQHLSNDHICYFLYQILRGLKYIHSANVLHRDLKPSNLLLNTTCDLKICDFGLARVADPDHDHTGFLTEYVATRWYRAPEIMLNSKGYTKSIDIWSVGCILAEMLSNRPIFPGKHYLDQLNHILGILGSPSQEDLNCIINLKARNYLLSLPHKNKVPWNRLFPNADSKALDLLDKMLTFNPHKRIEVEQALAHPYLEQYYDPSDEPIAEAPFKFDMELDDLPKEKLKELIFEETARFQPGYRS
In test [8] the target is Tyrosine-protein kinase SYK (Homo sapiens, UniProt P43405).
Test [9] has as its target Phosphatidylinositol 3-kinase catalytic subunit type 3 (Homo sapiens, UniProt Q8NEB9). Briefly: Selectivity interaction (KinomeScan (DiscoverX)) EUB0000695a PIK3C3. The conditions noted are these: at 100 nM.
Test [10] deals with ATPase family AAA domain-containing protein 2 (Homo sapiens) (UniProt Q6PL18). Briefly: Selectivity interaction (Human bromodomain panel (DSF assay)) EUB0000233b ATAD2.
The target in test [11] is T3, Serine/threonine-protein kinase ULK1 (Homo sapiens) (UniProt O75385).
T3 sequence (whole entry): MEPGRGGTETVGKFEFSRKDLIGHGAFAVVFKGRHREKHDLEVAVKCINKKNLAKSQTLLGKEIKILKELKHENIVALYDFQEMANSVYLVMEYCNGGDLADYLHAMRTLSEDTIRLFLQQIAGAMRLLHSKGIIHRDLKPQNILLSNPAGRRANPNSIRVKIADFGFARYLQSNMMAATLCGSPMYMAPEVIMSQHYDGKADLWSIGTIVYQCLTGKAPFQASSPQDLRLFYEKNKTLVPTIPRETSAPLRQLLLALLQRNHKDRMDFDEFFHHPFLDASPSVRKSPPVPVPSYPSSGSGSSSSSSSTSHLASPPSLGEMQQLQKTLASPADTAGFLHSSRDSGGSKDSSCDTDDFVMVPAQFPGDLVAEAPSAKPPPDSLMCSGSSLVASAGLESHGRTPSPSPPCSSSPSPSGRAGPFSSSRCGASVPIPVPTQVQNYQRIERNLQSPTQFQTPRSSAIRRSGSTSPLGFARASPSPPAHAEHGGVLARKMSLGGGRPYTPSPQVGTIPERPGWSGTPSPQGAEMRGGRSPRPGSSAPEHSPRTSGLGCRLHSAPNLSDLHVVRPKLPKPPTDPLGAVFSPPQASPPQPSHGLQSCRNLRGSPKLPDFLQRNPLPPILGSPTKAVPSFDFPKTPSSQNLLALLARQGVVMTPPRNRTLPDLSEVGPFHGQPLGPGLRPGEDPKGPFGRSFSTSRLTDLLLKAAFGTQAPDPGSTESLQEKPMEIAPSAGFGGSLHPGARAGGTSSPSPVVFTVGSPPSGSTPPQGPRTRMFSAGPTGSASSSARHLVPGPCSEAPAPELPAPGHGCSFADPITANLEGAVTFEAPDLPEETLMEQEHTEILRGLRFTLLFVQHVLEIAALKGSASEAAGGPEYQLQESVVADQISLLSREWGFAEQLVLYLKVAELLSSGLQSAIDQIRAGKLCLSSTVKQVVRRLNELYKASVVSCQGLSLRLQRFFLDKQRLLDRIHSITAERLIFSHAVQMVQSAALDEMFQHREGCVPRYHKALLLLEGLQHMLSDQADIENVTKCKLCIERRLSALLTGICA
Briefly: Selectivity interaction (KinomeScan (DiscoverX)) EUB0000618a ULK1. The conditions noted are these: at 10 µM.

Sequence of Phosphatidylinositol 3-kinase catalytic subunit type 3 (Q8NEB9 whole entry, the tested form may be a part): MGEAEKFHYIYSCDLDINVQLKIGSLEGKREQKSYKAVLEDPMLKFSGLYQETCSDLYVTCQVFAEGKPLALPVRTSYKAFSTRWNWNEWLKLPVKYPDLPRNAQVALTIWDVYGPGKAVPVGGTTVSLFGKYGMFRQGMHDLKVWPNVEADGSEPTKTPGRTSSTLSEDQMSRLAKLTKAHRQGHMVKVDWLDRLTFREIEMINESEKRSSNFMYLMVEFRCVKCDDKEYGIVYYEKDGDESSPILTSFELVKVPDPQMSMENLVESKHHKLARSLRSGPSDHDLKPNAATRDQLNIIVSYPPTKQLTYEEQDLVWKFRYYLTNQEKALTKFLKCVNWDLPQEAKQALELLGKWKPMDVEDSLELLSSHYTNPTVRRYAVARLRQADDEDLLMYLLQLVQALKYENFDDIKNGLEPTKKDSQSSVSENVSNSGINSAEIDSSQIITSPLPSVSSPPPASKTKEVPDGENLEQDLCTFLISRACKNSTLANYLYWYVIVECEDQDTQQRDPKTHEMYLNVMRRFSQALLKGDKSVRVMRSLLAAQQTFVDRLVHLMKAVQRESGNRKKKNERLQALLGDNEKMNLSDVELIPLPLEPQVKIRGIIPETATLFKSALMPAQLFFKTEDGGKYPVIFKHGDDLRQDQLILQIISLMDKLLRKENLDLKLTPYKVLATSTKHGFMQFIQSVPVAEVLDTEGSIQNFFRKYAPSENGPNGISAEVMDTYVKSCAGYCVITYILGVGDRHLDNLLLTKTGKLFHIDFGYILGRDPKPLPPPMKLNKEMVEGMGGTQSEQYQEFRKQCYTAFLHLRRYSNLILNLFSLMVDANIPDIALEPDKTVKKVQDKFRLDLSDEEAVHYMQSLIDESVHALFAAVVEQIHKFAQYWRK
Sequence of Maternal embryonic leucine zipper kinase (Homo sapiens) (Q14680 whole entry, looked up): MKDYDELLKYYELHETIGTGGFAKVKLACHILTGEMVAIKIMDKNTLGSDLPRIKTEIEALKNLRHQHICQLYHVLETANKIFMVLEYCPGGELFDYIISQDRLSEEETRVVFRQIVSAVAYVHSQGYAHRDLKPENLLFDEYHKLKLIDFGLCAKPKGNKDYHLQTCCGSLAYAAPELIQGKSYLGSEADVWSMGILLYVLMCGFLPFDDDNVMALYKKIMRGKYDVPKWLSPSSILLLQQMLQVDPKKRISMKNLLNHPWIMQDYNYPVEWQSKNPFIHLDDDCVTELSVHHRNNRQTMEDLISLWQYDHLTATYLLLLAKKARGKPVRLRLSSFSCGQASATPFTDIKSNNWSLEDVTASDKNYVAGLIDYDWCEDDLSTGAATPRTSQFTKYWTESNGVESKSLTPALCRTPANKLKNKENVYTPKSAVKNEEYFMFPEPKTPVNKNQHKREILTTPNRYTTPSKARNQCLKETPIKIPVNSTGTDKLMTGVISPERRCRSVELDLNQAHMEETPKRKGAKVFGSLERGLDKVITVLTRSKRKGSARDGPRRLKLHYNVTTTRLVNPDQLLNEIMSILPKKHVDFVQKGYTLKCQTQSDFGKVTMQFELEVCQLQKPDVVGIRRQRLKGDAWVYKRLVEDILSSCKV

In test [1], `Cn1cc(-n2cnc3c(NCc4nc5cc(Cl)c(Cl)cc5[nH]4)nc(N4CCOCC4)nc32)cn1` showed a % of inhibition of 67.7%.
As for `C=CC(=O)Nc1ccc(C(=O)Nc2[nH]nc3c2CN(C(=O)N[C@H](CN(C)C)c2ccccc2)C3(C)C)cc1`, the % of engagement in test [2] was -4.1%.
For `CNC(=O)Nc1ccc(-c2nc(N3CC4CCC(C3)O4)c3cnn(C4CCC5(CC4)OCCO5)c3n2)cc1`, in test [3], the % of control was determined as 99%.
Compound `Cc1cc([C@@H](C)Nc2ccccc2C(=O)O)c2nc(N3CCOCC3)cc(=O)n2c1` [AZD-6482] showed a % of control in test [4] of 88%.
The compound `Nc1cnc(N2CCc3cc(S(=O)(=O)Nc4c(F)cc(Cl)cc4F)cc(N4CCCC4=O)c32)nc1` [TP-020n] gave a % of control in test [5] of 90%.
Consider `N#Cc1cccc(-c2c[nH]c3ncnc(N4CCOCC4)c23)c1`, for which, in test [6], the % of control was 100%.
In test [7], `CC(=O)Nc1cccc(-n2c(=O)n(C3CC3)c(=O)c3c(Nc4ccc(I)cc4F)n(C)c(=O)c(C)c32)c1` showed a % of control of 108%.
`CCc1cccc(CC)c1NC(=O)c1nn(C)c2c1CCc1cnc(Nc3ccc(C(=O)NC4CCN(C)CC4)cc3OC(F)(F)F)nc1-2`: the half-maximal inhibitory concentration (IC50) (usually the concentration that inhibits the measured activity by half) in test [8] is more than 10 µM.
In the case of `Cc1cc(F)c(C(=O)Nc2cccc(-c3nncn3C(C)C)n2)cc1-n1cnc(C2CC2)c1`, the % of control in test [9] is 88%.
As for `CN(C)CCCOc1ccc(-c2cc(NCCCn3cccn3)nc(S(C)(=O)=O)n2)cc1`, the dTM in [10] was less than 2 K.
For `O[C@H]1CC[C@H](Nc2ncc3nc(Nc4c(F)cc(F)cc4F)n([C@H]4CCOC4)c3n2)CC1`, the % of control in test [11] was found to be 84%.
